Source: patent US20260041683A1, “Compounds with Anti-Acinetobacter Baumannii Activity” (University of Kentucky Research Foundation, priority 2022, published 2026)
Values after ≈ are worked out from the molar mass of the structure shown.

How the values were obtained:
Test in all cases: MIC determination
Assay type in all cases: cell-based
[1] = system: Ab strain #277 (CDC and FDA AR Bank); settings: Acinetobacter baumannii; Ab AR Bank #277
Protocol: (§1) All bacterial strains listed above were stored at −80° C. All strains were streaked on Mueller-Hinton (MH) plates and allowed to grow at 37° C. overnight. Enough colonies were scraped from the plate and suspended in MH broth with vortexing to reach an attenuance at 600 nm (OD600) of ˜0.5. The resulting culture was diluted 1:1000 and added to the prepared serially doubly diluted compound solutions in 96-well plates. For M. smegmatis, a 1:100 dilution of the bacteria was done in MH. All MIC values were determined using 96-well plates with low evaporation seals at least in duplicate. For each row, one well was reserved for sterile control (which consisted of 200 μL of MH medium) and another well was reserved for growth control (which consisted of 100 μL of MH medium seeded with 100 μL of bacterial culture).
(§2) Then all 46 compounds were tested against a broad panel of all 41 Ab strains from the CDC and FDA Antibiotic Resistance (AR) Isolate Bank (Table 2; data shown for 2 representative compounds), which were all highly multidrug-resistant strains, including those resistant to colistin. […] The activity of the monohydrazides was not dependent on the extent (number of resistance mutations) or severity (antibiotic MIC) of resistance. All conclusions made from Table 1 remained valid for all compounds against these 41 additional Ab strains. […] This mechanism of action will be elucidated in the proposed studies.

[2] = system: Ab strain #280 (CDC and FDA AR Bank); settings: Acinetobacter baumannii; Ab AR Bank #280
Protocol: as §1, §2

[3] = system: Ab strain #304 (CDC and FDA AR Bank); settings: Acinetobacter baumannii; Ab AR Bank #304
Protocol: as §1, §2

[4] = system: Ab strain #275 (CDC and FDA AR Bank); settings: Acinetobacter baumannii; Ab AR Bank #275
Protocol: as §1, §2

[5] = system: Ab strain #298 (CDC and FDA AR Bank); settings: Acinetobacter baumannii; Ab AR Bank #298
Protocol: as §1, §2

[6] = system: Ab strain #284 (CDC and FDA AR Bank); settings: Acinetobacter baumannii; Ab AR Bank #284
Protocol: as §1, §2

[7] = system: Ab strain #285 (CDC and FDA AR Bank); settings: Acinetobacter baumannii; Ab AR Bank #285
Protocol: as §1, §2

[8] = system: Ab strain #286 (CDC and FDA AR Bank); settings: Acinetobacter baumannii; Ab AR Bank #286
Protocol: as §1, §2

[9] = system: Ab strain #291 (CDC and FDA AR Bank); settings: Acinetobacter baumannii; Ab AR Bank #291
Protocol: as §1, §2

[10] = system: Ab strain #303 (CDC and FDA AR Bank); settings: Acinetobacter baumannii; Ab AR Bank #303
Protocol: as §1, §2

[11] = system: Ab strain #282 (CDC and FDA AR Bank); settings: Acinetobacter baumannii; Ab AR Bank #282
Protocol: as §1, §2

[12] = system: Ab strain #299 (CDC and FDA AR Bank); settings: Acinetobacter baumannii; Ab AR Bank #299
Protocol: as §1, §2

[13] = system: Ab strain #290 (CDC and FDA AR Bank); settings: Acinetobacter baumannii; Ab AR Bank #290
Protocol: as §1, §2

[14] = system: Ab strain #281 (CDC and FDA AR Bank); settings: Acinetobacter baumannii; Ab AR Bank #281
Protocol: as §1, §2

[15] = system: Ab strain #309 (CDC and FDA AR Bank); settings: Acinetobacter baumannii; Ab AR Bank #309
Protocol: as §1, §2

[16] = system: Ab strain #273 (CDC and FDA AR Bank); settings: Acinetobacter baumannii; Ab AR Bank #273
Protocol: as §1, §2

[17] = system: Ab strain #307 (CDC and FDA AR Bank); settings: Acinetobacter baumannii; Ab AR Bank #307
Protocol: as §1, §2

[18] = system: Ab strain #310 (CDC and FDA AR Bank); settings: Acinetobacter baumannii; Ab AR Bank #310
Protocol: as §1, §2

[19] = system: Ab strain #288 (CDC and FDA AR Bank); settings: Acinetobacter baumannii; Ab AR Bank #288
Protocol: as §1, §2

[20] = system: Ab strain #296 (CDC and FDA AR Bank); settings: Acinetobacter baumannii; Ab AR Bank #296
Protocol: as §1, §2

[21] = system: Ab strain #297 (CDC and FDA AR Bank); settings: Acinetobacter baumannii; Ab AR Bank #297
Protocol: as §1, §2

[22] = system: Ab strain #279 (CDC and FDA AR Bank); settings: Acinetobacter baumannii; Ab AR Bank #279
Protocol: as §1, §2

[23] = system: Ab strain #301 (CDC and FDA AR Bank); settings: Acinetobacter baumannii; Ab AR Bank #301
Protocol: as §1, §2

[24] = system: Ab strain #287 (CDC and FDA AR Bank); settings: Acinetobacter baumannii; Ab AR Bank #287
Protocol: as §1, §2

[25] = system: Ab strain #294 (CDC and FDA AR Bank); settings: Acinetobacter baumannii; Ab AR Bank #294
Protocol: as §1, §2

[26] = system: Ab strain #276 (CDC and FDA AR Bank); settings: Acinetobacter baumannii; Ab AR Bank #276
Protocol: as §1, §2

[27] = system: Ab strain #311 (CDC and FDA AR Bank); settings: Acinetobacter baumannii; Ab AR Bank #311
Protocol: as §1, §2

SMILES: O=C(NNc1ccc(Cl)cc1)c1ccc(F)cn1 [Compound 3e]
- MIC [1]: 0.06 µg/mL (≈ 0.226 µM)
- MIC [2]: 0.5 µg/mL (≈ 1.88 µM)
- MIC [3]: 0.5 µg/mL (≈ 1.88 µM)
- MIC [4]: 0.25 µg/mL (≈ 0.941 µM)
- MIC [5]: 0.25 µg/mL (≈ 0.941 µM)
- MIC [6]: 0.25 µg/mL (≈ 0.941 µM)
- MIC [7]: 0.13 µg/mL (≈ 0.489 µM)
- MIC [8]: 0.06 µg/mL (≈ 0.226 µM)
- MIC [9]: 0.06 µg/mL (≈ 0.226 µM)
- MIC [10]: 0.13 µg/mL (≈ 0.489 µM)
- MIC [11]: 0.25 µg/mL (≈ 0.941 µM)
- MIC [12]: 0.13 µg/mL (≈ 0.489 µM)
- MIC [13]: 0.125 µg/mL (≈ 0.47 µM)
- MIC [14]: 0.5 µg/mL (≈ 1.88 µM)
- MIC [15]: 0.25 µg/mL (≈ 0.941 µM)
- MIC [16]: 0.5 µg/mL (≈ 1.88 µM)
- MIC [17]: 0.5 µg/mL (≈ 1.88 µM)
- MIC [18]: 0.25 µg/mL (≈ 0.941 µM)
- MIC [19]: 0.25 µg/mL (≈ 0.941 µM)
- MIC [20]: 0.06 µg/mL (≈ 0.226 µM)
- MIC [21]: 0.25 µg/mL (≈ 0.941 µM)
- MIC [22]: 0.25 µg/mL (≈ 0.941 µM)
- MIC [23]: 0.25 µg/mL (≈ 0.941 µM)
- MIC [24]: 0.13 µg/mL (≈ 0.489 µM)
- MIC [25]: 0.25 µg/mL (≈ 0.941 µM)
- MIC [26]: 0.03 µg/mL (≈ 0.113 µM)
- MIC [27]: 0.5 µg/mL (≈ 1.88 µM)

SMILES: O=C(NNc1cccc(F)c1)c1cnccn1 [Compound 9a]
- MIC [1]: 1 µg/mL (≈ 4.31 µM)
- MIC [2]: 1 µg/mL (≈ 4.31 µM)
- MIC [3]: ≤ 0.13 µg/mL
- MIC [4]: 0.5 µg/mL (≈ 2.15 µM)
- MIC [5]: 0.5 µg/mL (≈ 2.15 µM)
- MIC [6]: 0.5 µg/mL (≈ 2.15 µM)
- MIC [7]: 0.5 µg/mL (≈ 2.15 µM)
- MIC [8]: 1 µg/mL (≈ 4.31 µM)
- MIC [9]: 0.25 µg/mL (≈ 1.08 µM)
- MIC [10]: 0.25 µg/mL (≈ 1.08 µM)
- MIC [11]: 1 µg/mL (≈ 4.31 µM)
- MIC [12]: 0.25 µg/mL (≈ 1.08 µM)
- MIC [13]: 1 µg/mL (≈ 4.31 µM)
- MIC [14]: 0.5 µg/mL (≈ 2.15 µM)
- MIC [15]: 0.5 µg/mL (≈ 2.15 µM)
- MIC [16]: 1 µg/mL (≈ 4.31 µM)
- MIC [17]: 0.5 µg/mL (≈ 2.15 µM)
- MIC [18]: 0.5 µg/mL (≈ 2.15 µM)
- MIC [19]: 1 µg/mL (≈ 4.31 µM)
- MIC [20]: ≤ 0.13 µg/mL
- MIC [21]: 0.5 µg/mL (≈ 2.15 µM)
- MIC [22]: 1 µg/mL (≈ 4.31 µM)
- MIC [23]: 0.25 µg/mL (≈ 1.08 µM)
- MIC [24]: 0.5 µg/mL (≈ 2.15 µM)
- MIC [25]: ≤ 0.13 µg/mL
- MIC [26]: 0.5 µg/mL (≈ 2.15 µM)
- MIC [27]: 0.5 µg/mL (≈ 2.15 µM)
